Experimental data taken from article PMC9645344, “Serotonin-releasing agents with reduced off-target effects” (Molecular Psychiatry, 2022).

Assays:
[1] = biological target: T1, human DAT (Homo sapiens, UniProt Q01959); experiment: DAT uptake inhibition assay in HEK293 cells ([3H]MPP+); format: cell-based
T1 construct: expressed in transfected cells
Description: Human embryonic kidney 293 (HEK293) cells stably expressing the human isoforms of either DAT or SERT were maintained in Dulbecco’s Modified Eagle Medium (DMEM), supplemented with 10% fetal calf serum at a subconfluent state in humidified atmosphere (5% CO2, 37 °C).
Uptake inhibition assays were performed as described earlier. Briefly, HEK293 cells stably expressing human SERT or DAT were seeded onto poly- D-lysine (PDL) coated 96-well plates (40,000 cells well^−1) the day before an experiment. Prior to the uptake inhibition assay, DMEM was replaced with Krebs-HEPES buffer (KHB, 25 mM HEPES, 120 mM NaCl, 5 mM KCl, 1.2 mM CaCl2, 1.2 mM MgSO4, and 5 mM D-glucose, pH 7.3) and the cells were preincubated with test drugs for 5 min at room temperature. Uptake assays were initiated by adding 20 nM [^3H]MPP^+ to DAT cells or 100 nM [^3H]5-HT to SERT cells. After 180 s (DAT) or 60 s (SERT), the tritiated substrate was removed by aspiration. Cells were washed once with ice-cold KHB, then lysed in 1% sodium dodecyl sulfate (SDS) and subjected to liquid scintillation counting to quantify tritium accumulated in each sample. Non-specific uptake was determined in the presence of mazindol (1 µM) for DAT or paroxetine (1 µM) for SERT and subtracted throughout.

[2] = tested on: extracellular DA; set-up: method as in PMID 23178523; conditions: racemic; cited from earlier work

T1 sequence (Q01959 whole entry): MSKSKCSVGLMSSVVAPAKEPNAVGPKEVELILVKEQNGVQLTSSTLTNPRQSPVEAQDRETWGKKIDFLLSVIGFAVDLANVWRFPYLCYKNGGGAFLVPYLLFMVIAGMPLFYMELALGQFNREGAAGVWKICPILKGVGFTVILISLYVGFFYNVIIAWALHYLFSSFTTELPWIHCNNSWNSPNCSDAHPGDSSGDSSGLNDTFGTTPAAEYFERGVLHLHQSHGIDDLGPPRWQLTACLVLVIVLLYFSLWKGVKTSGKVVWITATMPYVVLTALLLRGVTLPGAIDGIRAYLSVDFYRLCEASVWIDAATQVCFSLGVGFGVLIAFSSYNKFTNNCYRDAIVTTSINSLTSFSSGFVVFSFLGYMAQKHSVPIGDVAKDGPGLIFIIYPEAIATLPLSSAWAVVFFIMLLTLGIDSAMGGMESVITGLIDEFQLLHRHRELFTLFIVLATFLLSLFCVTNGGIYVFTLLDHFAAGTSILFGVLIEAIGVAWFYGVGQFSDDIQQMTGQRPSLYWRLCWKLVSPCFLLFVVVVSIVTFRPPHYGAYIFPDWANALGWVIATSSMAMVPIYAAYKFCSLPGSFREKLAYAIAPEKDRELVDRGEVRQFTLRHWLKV

For CNC(C)C(=O)c1ccc(C(F)(F)F)cc1 (centres unmarked) [4-TFMMC, 4-trifluoromethyl-N-methylcathinone], the IC50 [1] is listed as > 100 µM and the “extracellular DA” value [2] is listed as “did not affect extracellular DA”.
